Read-outs that look alike come from different tables or passages of the source.
Key:
A1 adenosine receptors = biological target: T1, A1 adenosine receptors (Rattus norvegicus, UniProt P25099); assay: Displacement of specific [3H]R-PIA binding in rat brain membranes; conditions: for Ki: [3H]R-PIA, rat brain membranes, n = 3-5, read-out: rA1 Ki ± S.E.M.
T1 construct: from tissue
T1 sequence (P25099 1-326): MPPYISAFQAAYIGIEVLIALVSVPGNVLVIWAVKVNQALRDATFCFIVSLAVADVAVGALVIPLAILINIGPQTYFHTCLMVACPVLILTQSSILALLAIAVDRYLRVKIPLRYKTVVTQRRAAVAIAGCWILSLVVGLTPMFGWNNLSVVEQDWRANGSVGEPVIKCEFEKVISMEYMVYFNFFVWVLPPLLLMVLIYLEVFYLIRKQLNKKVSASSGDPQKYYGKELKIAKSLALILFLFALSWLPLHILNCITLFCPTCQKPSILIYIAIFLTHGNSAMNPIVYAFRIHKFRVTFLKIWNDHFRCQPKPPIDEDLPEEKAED

rat A3 receptors = biological target: T2, rat A3 receptors (Rattus norvegicus, UniProt P28647); assay: Displacement of specific [125I]AB-MECA binding at rat A3 receptors stably expressed in CHO cells
T2 construct: expressed in transfected cells
T2 sequence (P28647 1-320): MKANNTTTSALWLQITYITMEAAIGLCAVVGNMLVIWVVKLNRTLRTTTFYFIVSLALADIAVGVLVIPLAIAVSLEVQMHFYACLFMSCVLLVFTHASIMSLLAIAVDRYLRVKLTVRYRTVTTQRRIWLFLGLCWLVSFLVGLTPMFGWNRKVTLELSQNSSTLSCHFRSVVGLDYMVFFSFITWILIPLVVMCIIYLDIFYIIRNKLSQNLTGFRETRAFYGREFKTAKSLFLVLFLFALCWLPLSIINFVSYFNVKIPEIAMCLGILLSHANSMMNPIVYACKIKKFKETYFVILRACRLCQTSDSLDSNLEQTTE

A2A adenosine receptors = biological target: T3, A2A adenosine receptors (Rattus norvegicus, UniProt P30543); assay: Displacement of specific [3H]CGS 21680 binding in rat striatal membranes; conditions: for Ki: [3H]CGS 21680, rat striatal membranes, n = 3-6, read-out: rA2A Ki ± S.E.M.; for rA2A percentage of specific binding displaced: Table 2
T3 construct: from tissue
T3 sequence (P30543 whole entry): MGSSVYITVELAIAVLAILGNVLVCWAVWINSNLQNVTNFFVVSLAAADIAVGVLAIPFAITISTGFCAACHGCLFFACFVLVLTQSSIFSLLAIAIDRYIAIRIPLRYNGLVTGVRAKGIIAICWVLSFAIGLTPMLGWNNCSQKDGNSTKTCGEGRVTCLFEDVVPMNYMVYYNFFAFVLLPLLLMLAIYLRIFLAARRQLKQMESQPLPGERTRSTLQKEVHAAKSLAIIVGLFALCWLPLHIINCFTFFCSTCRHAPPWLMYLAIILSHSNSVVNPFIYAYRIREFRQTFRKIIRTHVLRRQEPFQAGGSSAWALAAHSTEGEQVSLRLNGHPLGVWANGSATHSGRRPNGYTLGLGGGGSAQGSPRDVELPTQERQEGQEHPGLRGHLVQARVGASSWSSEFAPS

human A3 receptors = biological target: T4, human A3 receptors (Homo sapiens, UniProt P0DMS8); assay: Displacement of specific [125I]AB-MECA binding at human A3 receptors expressed in HEK cells, in membranes; conditions: for Ki: Table 2, compounds 33-58, [125I]AB-MECA, HEK cell membranes, n = 3-4, read-out: hA3 Ki ± S.E.M.; for rA1/hA3: Table 2, ratio of affinities rat A1 vs human A3
T4 construct: expressed in transfected cells
T4 sequence (P0DMS8 1-318): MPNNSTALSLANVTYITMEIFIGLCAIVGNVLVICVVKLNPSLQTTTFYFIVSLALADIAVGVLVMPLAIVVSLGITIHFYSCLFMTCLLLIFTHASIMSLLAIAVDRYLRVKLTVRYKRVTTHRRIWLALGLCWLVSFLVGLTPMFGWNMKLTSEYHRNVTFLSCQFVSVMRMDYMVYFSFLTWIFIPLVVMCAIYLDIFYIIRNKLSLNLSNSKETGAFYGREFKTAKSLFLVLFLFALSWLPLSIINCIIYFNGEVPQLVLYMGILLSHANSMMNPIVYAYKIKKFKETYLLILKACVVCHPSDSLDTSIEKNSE

[1] = Table 4, [125I]AB-MECA, CHO cells, n = 3-5, read-out: rA3 Ki

| Compound | Ki (human A3 receptors) [µM] | rA1/hA3 (human A3 receptors) | Ki (A2A adenosine receptors; Table 2, compounds 33-58) [µM] | Ki (A1 adenosine receptors; Table 2, compounds 33-58) [µM] | also measured |
| --- | --- | --- | --- | --- | --- |
| CCOC(=O)C1=C(c2ccccc2)NC(C)=C(C(=O)SCC)C1CC (racemic) [Compound 62, 5-Ethel 2-methyl-4ethyl-6-phenyl-3-(ethylsulfanylcarbonyl)-1,4-(±)-dihydropyridine-5-carboxylate] |  |  |  |  | Ki (A1 adenosine receptors; Table 3): 35.4 ± 4.5 µM; Ki (rat A3 receptors; [1]): 4.6 ± 0.38 µM; Ki (A2A adenosine receptors; Table 3): 54.8 ± 18.8 µM |
| CCCC1C(C(=O)SCC)=C(C)NC(c2ccccc2)=C1C(=O)OCC (racemic) [Compound 64, 5-Ethyl 2-methyl-4-propyl-6-phenyl-3-(ethylsulfanylcarbonyl)-1,4-(±)-dihydropyridine-5-carboxylate] |  |  |  |  | inhibition at 100 µM (A1 adenosine receptors; Table 3, at 10^−4 M, read-out: rA1 % inhibition (percentage of specific binding displaced)): 48 ± 5%; Ki (rat A3 receptors; [1]): 3.1 ± 0.78 µM; inhibition at 100 µM (A2A adenosine receptors; Table 3, at 10^−4 M, read-out: rA2A % inhibition (percentage of specific binding displaced)): 29 ± 10% |
| CCOC(=O)c1c(-c2ccccc2)nc(C)c(C(=O)SCCOC)c1CC [Compound 37, 5-Ethyl 2-methyl-4-ethyl-3-[2-methoxy-(ethylsulfanylcarbonyl)]-6-phenylpyridine-5-carboxylate] | 0.165 ± 0.012 | >500 | 7.98 ± 1.36 |  | rA1 percentage of specific binding displaced (A1 adenosine receptors; Table 2, at 10^−4 M): 36 ± 11% (10^−4) |
| CCOC(=O)c1c(C)nc(-c2ccccc2)c(C(=O)OCC)c1C(OC)OC [Compound 40, 3,5-Diethyl 2-methyl-4-(dimethoxymethyl)-6-phenylpyridine-3,5-dicarboxylate] | 0.783 ± 0.154 | 2.5 | 2.88 ± 0.61 | 1.95 ± 0.43 |  |
| CCOC(=O)c1c(C)nc(-c2ccccc2)c(C(=O)OCc2ccccc2)c1C#Cc1ccccc1 [Compound 43] | 2.75 ± 0.78 | 4.2 |  | 11.6 ± 4.8 | rA2A percentage of specific binding displaced (A2A adenosine receptors; at 10^−4 M): 43 ± 20% (10^−4) |
| CCOC(=O)c1c(C)nc(C2CCC2)c(C(=O)OCc2ccccc2)c1C#Cc1ccccc1 [Compound 44, 3-Ethyl 5-benzyl 2-methyl-4-phenylethynyl-6-cyclobutylpyridine-3,5-dicarboxylate] | 2.41 ± 0.59 |  | 27.6 ± 12 |  | rA1 displacement of specific binding (class d) (A1 adenosine receptors; Table 2, at 10^−4 M): d (10^−4) (Displacement of <10% of specific binding at the indicated concentration (M).) |
| CCOC(=O)c1c(C)nc(C2CCCC2)c(C(=O)OCc2ccccc2)c1C#Cc1ccccc1 [Compound 45, 3-Ethyl 5-benzyl 2-methyl-4-phenylethynyl-6-cyclopentylpyridine-3,5-dicarboxylate] | 3.85 ± 0.79 | 15 | 22.9 ± 5 | 56.2 ± 20.8 |  |
| CCOC(=O)c1c(CC)nc(-c2ccccc2)c(C(=O)OCC)c1C [Compound 46, 3,5-Diethyl 2-ethyl-4-methyl-6-phenylpyridine-3,5-dicarboxylate] | 0.121 ± 0.008 | 85 | 13.4 ± 4.2 | 10.3 ± 1.7 |  |
| CCCOC(=O)c1c(-c2cccc(Cl)c2)nc(CC)c(C(=O)SCCC)c1CC [Compound 54, 5-Propyl 2,4-diethyl-3-propylsulfanylcarbonyl-6-(m-chlorophenyl)pyridine-5-carboxylate] |  |  | 24.1 ± 7.9 | 41.4 ± 11.9 | Ki (rat A3 receptors): 0.814 ± 0.037 µM |
| CCOC(=O)c1c(-c2ccccc2)nc(CCOC)c(C(=O)SCC)c1CC [Compound 56, 5-Ethyl 2-(2-methoxylethyl)-4-ethyl-3-(ethylsulfanylcarbonyl)-6-phenylpyridine-5-carboxylate] | 0.0168 ± 0.002 | 600 | 12.6 ± 1.7 | 10.1 ± 2.1 |  |
| CCOC(=O)c1c(-c2ccccc2)nc(C2CCC2)c(C(=O)SCC)c1CC [Compound 58, 5-Ethyl 2-cyclobutyl-4-ethyl-3-(ethylsulfanylcarbonyl)-6-phenylpyridine-5-carboxylate] | 0.145 ± 0.044 | >500 |  |  | rA1 percentage of specific binding displaced (A1 adenosine receptors; Table 2, at 10^−4 M): 30% (10^−4); rA2A percentage of specific binding displaced (A2A adenosine receptors; at 10^−4 M): 22% (10^−4) |

— patent US6376521B1, “A3 adenosine receptor antagonists” (The United States of America as represented by the …, priority 1998, dated 2002)
